Experiments:
PKM2, human recombinant = molecular target: T1, PKM2, human recombinant (Homo sapiens, UniProt P14618); assay: PKM2 enzymatic activity assay (Kinase-Glo Plus luminescence); type: biochemical; conditions: PKM2 activation; 0.1 nM PKM2, 0.1 mM ADP, 0.5 mM PEP, room temperature, 1 hour
T1 construct: purchased BPS 50295
Description: PKM2 performs the following enzymatic reaction, where the PKM2 substrates, PEP (phosphoenolpyruvate) and ADP, are converted to pyruvate and ATP as follows: PEP+ADP→Pyruvate+ATP. All of the enzymatic reactions were conducted in duplicates at room temperature for 1 hour in a 50 μL mixture containing:
PKM2 assay buffer (50 mM Immidazole, pH 7.2; 7 mM MgCl2; 50 mM KCl; 0.01% Tween; and 0.05% BSA), 0.1 mM ADP, 0.5 mM PEP, 0.1 nM PKM2 enzyme (PKM2, human recombinant (BPS catalog number 50295)) and the indicated test compound.
Fructose 1,6 biphosphate, (FBP (Sigma)) was used as a positive control for activation at concentration of 0.5 mM. After enzymatic reactions, 50 μL of Kinase-Glo® Plus reagent (Promega kit) was added to each well and luminescence was measured using a BioTek Synergy™ 2 microplate reader.
PKM2 activity assays were performed in duplicates at each concentration. The luminescence data were analyzed using the computer software, GraphPad PRISM®. In the absence of the compound, the luminescence was defined as 0% activity. The percent activity in the presence of each compound was calculated according to the following equation: % Activity=[(L−Lb)/(Lt−Lb)−1]×100% where L=the luminescence in the presence of the test compound, Lb=the luminescence in the absence of PKM2, and Lt=the luminescence intensity in the absence of the test compound. The % activity values versus a series of compound concentrations were plotted using non-linear regression analysis of Sigmoidal dose-response curve generated with the equation Y=B+(T−B)/1+10^((LogEC50−X)×Hill Slope), where Y=percent activity, B=minimum percent activity, T=maximum percent activity, X=logarithm of compound and Hill Slope=slope factor or Hill coefficient. The EC50 value was determined for the indicated compounds as the concentration causing a half-maximal percent activity.

[1] = tested on: H1299 (Non small cell lung carcinoma cell line); assay: In vitro cell proliferation, Assay Protocol II (cell proliferation index, fluorescent membrane marker, flow cytometry); type: cell-based; conditions: Homo sapiens, NCI-H1299, as measured by Assay Protocol II
Description: In a second assay to determine the inhibition of cell proliferation by a compound of the invention, cell proliferation of the cell line of interest was measured by a cell proliferation index assay using Fluofarma® based technology. This assay is based on the dilution rate of a fluorescent membrane marker, which is a direct function of the number of cell divisions. Briefly, the assay is performed by loading the cells with a non-toxic fluorescent phospholipid analog before the seeding. […] Flow cytometry analysis of the fluorescent probe is performed after the loading of the cells both prior to, as well as after treatment with various concentrations of the test compound. The dilution rate of the fluorescent probe at the single cell level is directly correlated to the number of cell divisions.

[2] = tested on: 786-O (Renal cancer cell line); assay: In vitro cell proliferation, Assay Protocol I (CellTiterGlo); type: cell-based; conditions: Homo sapiens, 786-0
Description: (§1) Growth inhibitory activity against the human tumor cell lines of compounds of the invention was determined using Promega's CellTiterGlo® assay. The cell lines of interest were placed in a 96-well microculture plate (Costar® white, flat bottom #3917) in a total volume of 90 μL/well. After 24 hours of incubation in a humidified incubator at 37° C. with 5% CO2 and 95% air, 10 μL of serially diluted test compounds in growth medium were added to each well. After 96 total hours of culture in a CO2 incubator, the plated cells and CellTiter-Glo® (Promega # G7571) reagents were brought to room temperature to equilibrate for 30 minutes. 100 μL of CellTiter-Glo® reagent was added to each well. The plate was shaken for 2 minutes and then left to equilibrate for 10 minutes before reading luminescence on the Tecan GENios microplate reader.
(§2) Percent inhibition of cell growth was calculated relative to untreated control wells. All tests were performed in triplicate for each concentration level. The IC50 value for the test compounds was estimated using Prism 3.03 by curve-fitting the data.

[3] = tested on: A549 (Non-small cell lung carcinoma cell line); assay: as above; type: cell-based; conditions: Homo sapiens
Description: as §1, §2

[4] = tested on: Colo-205 (Colorectal cancer cell line); assay: as above; type: cell-based; conditions: Homo sapiens
Description: as §1, §2

[5] = tested on: H1299 (Non small cell lung carcinoma cell line); assay: as above; type: cell-based; conditions: Homo sapiens, NCI-H1299, 96 total hours of culture
Description: as §1, §2

[6] = tested on: HT-29 (Colorectal cancer cell line); assay: as above; type: cell-based; conditions: Homo sapiens
Description: as §1, §2

[7] = tested on: HeLa (Cervical cancer cell line); assay: as above; type: cell-based; conditions: Homo sapiens
Description: as §1, §2

[8] = tested on: HepG2 cancer cells (hepatocellular carcinoma cells); assay: Bioenergetic study, XF24 analyzer (OCR and ECAR); type: cell-based; conditions: HepG2 cells treated at 100 μM, recorded over an 8 hour period; FIG. 2
Description: Bioenergetic studies were performed using XF24 analyzer (Seahorse Bioscience). Oxygen Consumption Rate (OCR), a measure of mitochondrial oxydative phosphorylation, and Extra-Cellular Acidification Rate (ECAR), which represents glycolysis, were recorded over an 8 hour period for cells treated with various test compounds at 100 μM.

[9] = Cell proliferation and apoptosis over time (cell counts, caspase 3/7 assay), FIG. 3; type: cell-based
Description: Additionally, the effect of 5-((2,3-dihydrobenzo[b][1,4]dioxin-6-yl)sulfonyl)-2-methyl-1-(methylsulfonyl)indoline on cell proliferation and apoptosis was measured and the results are shown in FIG. 3.

T1 sequence (P14618 whole entry): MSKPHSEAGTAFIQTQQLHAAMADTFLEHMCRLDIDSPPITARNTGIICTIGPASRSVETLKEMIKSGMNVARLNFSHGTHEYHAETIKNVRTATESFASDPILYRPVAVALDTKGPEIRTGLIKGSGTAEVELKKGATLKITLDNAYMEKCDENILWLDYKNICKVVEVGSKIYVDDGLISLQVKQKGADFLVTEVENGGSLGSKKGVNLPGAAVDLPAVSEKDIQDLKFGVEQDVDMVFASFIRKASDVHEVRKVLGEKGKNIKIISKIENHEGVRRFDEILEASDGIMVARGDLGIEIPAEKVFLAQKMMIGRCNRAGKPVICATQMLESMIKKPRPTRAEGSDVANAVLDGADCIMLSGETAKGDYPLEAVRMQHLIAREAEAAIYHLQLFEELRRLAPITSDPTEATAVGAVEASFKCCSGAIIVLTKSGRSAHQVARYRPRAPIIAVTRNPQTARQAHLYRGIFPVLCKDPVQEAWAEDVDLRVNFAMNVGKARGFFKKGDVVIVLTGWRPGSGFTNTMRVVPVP

## CC1Cc2cc(S(=O)(=O)c3ccc4c(c3)OCCO4)ccc2N1S(C)(=O)=O (stereo not drawn) [Compound 2A, 5-((2,3-dihydrobenzo[b][1,4]dioxin-6-yl)sulfonyl)-2-methyl-1-(methylsulfonyl)indoline]
PKM2, human recombinant
  EC50: 1 to 10 µM
[1]
  IC50: < 40 µM
[2]
  IC50: < 30 µM
[3]
  IC50: < 50 µM
[4]
  IC50: < 30 µM
[5]
  IC50: < 10 µM
[6]
  IC50: > 100 µM
[7]
  IC50: < 60 µM
[8]
  Metabolic activity (OCR and ECAR): less metabolically active
[9]; FIG. 3, as a function of time after treatment
  Effect on cell proliferation (cell counts): induces a period of growth arrest
[9]; by day 15, FIG. 3
  Cells that underwent apoptosis (caspase 3/7 assay): up to 60%

## CC(=O)N1c2ccc(S(=O)(=O)c3ccc4c(c3)OCCO4)cc2CC1C (stereo not drawn) [Compound 4A]
PKM2, human recombinant
  EC50: 1 to 10 µM

## CS(=O)(=O)N1Cc2ccc(S(=O)(=O)c3ccc4c(c3)OCCO4)cc2C1 [Compound 6A, 5-((2,3-dihydrobenzo[b][1,4]dioxin-6-yl)sulfonyl)-2-(methylsulfonyl)isoindoline]
[1]
  IC50: < 20 µM

## CS(=O)(=O)N1CCCc2cc(S(=O)(=O)c3ccc4c(c3)OCCO4)ccc21 [Compound 7A]
PKM2, human recombinant
  EC50: 1 to 10 µM

## CC(C)N(c1ccc(S(=O)(=O)c2ccc3c(c2)OCCO3)cc1)S(C)(=O)=O [Compound 10A]
PKM2, human recombinant
  EC50: 1 to 10 µM

## CS(=O)(=O)N1CCc2cc(S(=O)(=O)c3ccc4c(c3)OCCO4)ccc21 [Compound 11A, 5-((2,3-dihydrobenzo[b][1,4]dioxin-6-yl)sulfonyl)-1-(methylsulfonyl)indoline]
[5]
  IC50: < 20 µM

## CCN(c1ccc(S(=O)(=O)c2ccc3c(c2)OCCO3)c(C)c1)S(C)(=O)=O [Compound 12A]
PKM2, human recombinant
  EC50: 1 to 10 µM

## C[C@H]1Cc2cc(S(=O)(=O)c3ccc4c(c3)OCCO4)ccc2N1S(=O)(=O)Cc1ccccc1 [Compound 13A]
PKM2, human recombinant
  EC50: 1 to 10 µM

## Cc1cn(S(C)(=O)=O)c2ccc(S(=O)(=O)c3ccc4c(c3)OCCO4)cc12 [Compound 21A]
PKM2, human recombinant
  EC50: 1 to 10 µM

## CC1Cc2cc(S(=O)(=O)Nc3ccc4c(c3)OCCO4)ccc2N1S(C)(=O)=O (stereo not drawn) [Compound 23A]
PKM2, human recombinant
  EC50: 10 to 100 µM

## CCN(c1ccc(S(=O)(=O)c2ccc3c(c2)OCCO3)cc1)S(C)(=O)=O [Compound 24A]
PKM2, human recombinant
  EC50: 10 to 100 µM

— patent US8692001B2, “Sulfonamides for the modulation of PKM2” (Dynamix Pharmaceuticals Ltd., priority 2010, dated 2014)
